Where two headings read alike, the source gives them in different places.
Columns and labels:
[1] = Stability Test-1: residual rate of 1% aqueous solutions stored at 50° C. (HPLC); format: physicochemical; conditions: water; for remaining at 672 h: after 4 weeks
Method: (§1) For each of the samples of Synthesis Examples 1 to 6, 1% aqueous solutions were adjusted to pH 3, 5, 7, 8, and 9 with a dilute potassium hydroxide aqueous solution, and then placed in 50 mL screw tubes and sealed. […] Furthermore, the odor and coloration of the samples adjusted to pH 7 were evaluated based on the following methods and criteria, and the results are shown in Table 11.
• ⊚: 80% or more • ◯: 50% or more, less than 80% • Δ: 30% or more, less than 50% • x: Less than 30%

[2] = Stability Test-1: odor of 1% aqueous solutions adjusted to pH 7 stored at 50° C.; format: physicochemical; conditions: 1% aqueous solution pH 7, 50° C., 10 panelists
Method: as §1
(§2) • Evaluation was made by 10 panelists according to the following criteria. • 3: Almost odorless. • 2: There is a slight strange odor. • 1: A strong odor is detected. • Based on the results of the above evaluation, the following classification was made: • ◯: Total score of 10 panelists is 25 or more • Δ: Total score of 10 panelists is 16-24 • x: The total score of 10 panelists is 15 or less

[3] = Stability Test-1: coloration of 1% aqueous solutions adjusted to pH 7 stored at 50° C.; format: physicochemical; conditions: 1% aqueous solution pH 7, 50° C., 10 panelists
Method: as §1
• Evaluation was made by 10 panelists according to the following criteria. • 3: Almost no change compared to immediately after preparation. • 2: Color changes compared to immediately after preparation. • 1: Strongly colored compared to immediately after preparation. • Based on the results of the above evaluation, the following classification was made: […]

[4] = tested on: Normal human dermal fibroblasts (NHDF); test: Hyaluronic acid production promoting effect (ELISA of hyaluronic acid in supernatant); format: cell-based; conditions: 10 mM or less, 48 hours, control group set to 100%, N=3
Method: Normal human dermal fibroblasts (NHDF) were prepared in D-MEM containing 5% (v/v) fetal bovine serum to a cell density of 2.5×10^4 cells/well, and then pre-incubated on a 96-well plate for 24 hours. After removing the medium, samples prepared in serum-free D-MEM were added to each well and cultured for 48 hours. After the culture was completed, the amount of hyaluronic acid in the supernatant was quantified by ELISA. Measurements were performed in triplicate (N=3).
The amount of hyaluronic acid produced when the sample was measured at a concentration of 10 mM or less was compared with that of the control group, and the results (% values when the control group is set to 100%) are shown in Tables 18 to 20 based on the following criteria.

[5] = Stability Test-2: residual rate in cream of pH 7 or 9 stored at 50° C.; format: physicochemical
Method: (§3) For each of the samples of Synthesis Examples 9 to 32, (a) and (b) shown in Table 12 were each heated and mixed. After cooling, (c) shown in Table 12 was added to prepare a cream with a pH of 7 or 9. […] The odor and coloration were also evaluated according to the same method and criteria as in Test Example 1. The results regarding the residual rate are shown in Tables 13 and 14, and the results regarding the odor and coloration are shown in Tables 15 and 16.

[6] = Stability Test-2: odor of cream stored at 50° C.; format: physicochemical; conditions: 10 panelists
Description: as §2, §3

[7] = Stability Test-2: coloration of cream stored at 50° C.; format: physicochemical; conditions: 10 panelists
Description: • Evaluation was made by 10 panelists according to the following criteria. • 3: Almost no change compared to immediately after preparation. • 2: Color changes compared to immediately after preparation. • 1: Strongly colored compared to immediately after preparation. • Based on the results of the above evaluation, the following classification was made:
as §3

[8] = pH 3, 50° C., after 2 weeks, 1% aqueous solution, read-out: Residual Rate
[9] = pH 3, 50° C., 1% aqueous solution
[10] = pH 5, 50° C., after 2 weeks, 1% aqueous solution, read-out: Residual Rate
[11] = pH 5, 50° C., 1% aqueous solution
[12] = pH 7, 50° C., after 2 weeks, 1% aqueous solution, read-out: Residual Rate
[13] = pH 7, 50° C., 1% aqueous solution
[14] = pH 8, 50° C., after 2 weeks, 1% aqueous solution, read-out: Residual Rate
[15] = pH 8, 50° C., 1% aqueous solution
[16] = pH 9, 50° C., after 2 weeks, 1% aqueous solution, read-out: Residual Rate
[17] = pH 9, 50° C., 1% aqueous solution
[18] = cream pH 7, 50° C., after 2 weeks, 20160 min
[19] = cream pH 7, 50° C., after 4 weeks, 40320 min
[20] = cream pH 9, 50° C., after 2 weeks, 20160 min
[21] = cream pH 9, 50° C., after 4 weeks, 40320 min

Row | remaining at 336 h [1, 8] [%] | remaining at 672 h [1, 9] [%] | remaining at 336 h [1, 10] [%] | remaining at 672 h [1, 11] [%] | remaining at 336 h [1, 12] [%] | remaining at 672 h [1, 13] [%] | remaining at 336 h [1, 14] [%] | remaining at 672 h [1, 15] [%] | remaining at 336 h [1, 16] [%] | remaining at 672 h [1, 17] [%] | Residual Rate [5, 18] | Residual Rate [5, 19] | Residual Rate [5, 20] | Residual Rate [5, 21] | Odor ([6]; after 4 weeks) | Structure (SMILES) | Odor ([2]; after 2 weeks) | Hyaluronic acid production-promoting effect [4] | Odor ([6]; after 2 weeks) | Coloration ([7]; after 2 weeks) | Coloration ([7]; after 4 weeks) | other results
1 | 50 to 80 | 30 to 50 | 50 to 80 | < 30 | < 30 | < 30 | < 30 | < 30 | < 30 | < 30 |  |  |  |  |  | O=C1O[C@H]([C@@H](O)CO)C(O)=C1O [Ascorbic acid] | Δ (Total score of 10 panelists is 16-24) | ± (<100%) |  |  |  | remaining at 336 h ([1]; pH 7 to 9, 50° C., after two weeks, read-out: residual rates): < 30%; Odor ([2]; after 4 weeks): x (The total score of 10 panelists is 15 or less); Coloration ([3]; after 2 weeks): Δ (Total score of 10 panelists is 16-24); Coloration ([3]; after 4 weeks): x (The total score of 10 panelists is 15 or less)
2 | ≥ 80 | ≥ 80 | ≥ 80 | ≥ 80 | 50 to 80 | 30 to 50 | 30 to 50 | < 30 | < 30 | < 30 |  |  |  |  |  | O=C1OC(C(O)CO)C2=C1OCCO2 (stereo not shown) [Synthesis Example 1, 2,3-O-(1,2-ethanediyl) ascorbic acid] | ∘ (Total score of 10 panelists is 25 or more) |  |  |  |  | Odor ([2]; after 4 weeks): ∘ (Total score of 10 panelists is 25 or more); Coloration ([3]; after 2 weeks): ∘ (Total score of 10 panelists is 25 or more); Coloration ([3]; after 4 weeks): Δ (Total score of 10 panelists is 16-24)
3 | ≥ 80 | ≥ 80 | ≥ 80 | ≥ 80 | ≥ 80 | ≥ 80 | ≥ 80 | 50 to 80 | 50 to 80 | 30 to 50 |  |  |  |  |  | O=C1OC(C(O)CO)C2=C1OCCCCO2 (stereo not shown) [Synthesis Example 3, 2,3-O-(1,4-butanediyl) ascorbic acid] | ∘ (Total score of 10 panelists is 25 or more) |  |  |  |  | Odor ([2]; after 4 weeks): ∘ (Total score of 10 panelists is 25 or more); Coloration ([3]; after 2 weeks): ∘ (Total score of 10 panelists is 25 or more); Coloration ([3]; after 4 weeks): ∘ (Total score of 10 panelists is 25 or more)
4 | ≥ 80 | ≥ 80 | ≥ 80 | ≥ 80 | 50 to 80 | 30 to 50 | 50 to 80 | 30 to 50 | 50 to 80 | 30 to 50 |  |  |  |  |  | O=C1OC(C(O)CO)C2=C1OC(CO)CO2 (stereo not shown) [Synthesis Example 5, 2,3-O-(1-hydroxymethyl-1,2-ethanediyl) ascorbic acid] | ∘ (Total score of 10 panelists is 25 or more) |  |  |  |  | Odor ([2]; after 4 weeks): ∘ (Total score of 10 panelists is 25 or more); Coloration ([3]; after 2 weeks): ∘ (Total score of 10 panelists is 25 or more); Coloration ([3]; after 4 weeks): ∘ (Total score of 10 panelists is 25 or more)
5 |  |  |  |  |  |  |  |  |  |  | ⊚ (95% or more) | ⊚ (95% or more) | ⊚ (95% or more) | ⊚ (95% or more) | Δ (Total score of 10 panelists is 16-24) | CCCCCCCC(=O)OCC(O)C1OC(=O)C2=C1OCCCO2 (stereo not shown) [Synthesis Example 22, 6-O-octanoyl-2,3-O-(1,3-propanediyl) ascorbic acid] |  | ++ (120%<) | ◯ (Total score of 10 panelists is 25 or more) | ◯ (Total score of 10 panelists is 25 or more) | ◯ (Total score of 10 panelists is 25 or more) | 
6 |  |  |  |  |  |  |  |  |  |  | ⊚ (95% or more) | ⊚ (95% or more) | ⊚ (95% or more) | ⊚ (95% or more) | Δ (Total score of 10 panelists is 16-24) | CCCCCCCCCCCC(=O)OCC(O)C1OC(=O)C2=C1OCCCO2 (stereo not shown) [Synthesis Example 24, 6-O-lauroyl-2,3-O-(1,3-propanediyl) ascorbic acid] |  | ++ (120%<) | ◯ (Total score of 10 panelists is 25 or more) | ◯ (Total score of 10 panelists is 25 or more) | ◯ (Total score of 10 panelists is 25 or more) | 
7 |  |  |  |  |  |  |  |  |  |  | ⊚ (95% or more) | ⊚ (95% or more) | ⊚ (95% or more) | ⊚ (95% or more) | Δ (Total score of 10 panelists is 16-24) | CCCCCCCCCCCC(=O)OCC(OC(=O)CCCCCCCCCCC)C1OC(=O)C2=C1OCCCO2 (stereo not shown) [Synthesis Example 25, 5,6-O-dilauroyl-2,3-O-(1,3-propanediyl) ascorbic acid] |  | ++ (120%<) | ◯ (Total score of 10 panelists is 25 or more) | ◯ (Total score of 10 panelists is 25 or more) | Δ (Total score of 10 panelists is 16-24) | 
8 |  |  |  |  |  |  |  |  |  |  | ⊚ (95% or more) | ⊚ (95% or more) | ⊚ (95% or more) | ◯ (85% or more, less than 95%) | Δ (Total score of 10 panelists is 16-24) | CCCCCCCCCCCCCCCC(=O)OCC(O)C1OC(=O)C2=C1OCCCO2 (stereo not shown) [Synthesis Example 26, 6-O-palmitoyl-2,3-O-(1,3-propanediyl) ascorbic acid] |  | ++ (120%<) | ◯ (Total score of 10 panelists is 25 or more) | ◯ (Total score of 10 panelists is 25 or more) | Δ (Total score of 10 panelists is 16-24) | 
9 |  |  |  |  |  |  |  |  |  |  | ⊚ (95% or more) | ⊚ (95% or more) | ⊚ (95% or more) | ⊚ (95% or more) | Δ (Total score of 10 panelists is 16-24) | CC(C)CCCCCCCCCCCCCCC(=O)OCC(O)C1OC(=O)C2=C1OCCCO2 (stereo not shown) [Synthesis Example 28, 6-O-isostearoyl-2,3-O-(1,3-propanediyl) ascorbic acid] |  | ++ (120%<) | ◯ (Total score of 10 panelists is 25 or more) | ◯ (Total score of 10 panelists is 25 or more) | ◯ (Total score of 10 panelists is 25 or more) | 
10 |  |  |  |  |  |  |  |  |  |  | ⊚ (95% or more) | ⊚ (95% or more) | ⊚ (95% or more) | ⊚ (95% or more) | Δ (Total score of 10 panelists is 16-24) | CC(C)CCCCCCCCCCCCCCC(=O)OCC(O)C1OC(=O)C2=C1OCCO2 (stereo not shown) [Synthesis Example 31, 6-O-isostearoyl-2,3-O-(1,2-ethanediyl) ascorbic acid] |  | ++ (120%<) | ◯ (Total score of 10 panelists is 25 or more) | ◯ (Total score of 10 panelists is 25 or more) | ◯ (Total score of 10 panelists is 25 or more) | 

— US20260294769A1, “ASCORBIC ACID DERIVATIVES AND COSMETIC THEREOF” (SEIWA KASEI COMPANY, LIMITED, priority 2023, published 2026)
